# Assay results as given in US11773067B2, “(Trifluoromethyl)pyrimidine-2-amine compounds” (Eli Lilly and Company, priority 2020, dated 2023).
# Read-outs that look alike come from different tables or passages of the source.
# Legend:
# human MrgX1 receptor = target: T1, human MrgX1 receptor (Homo sapiens, UniProt Q96LB2); experiment: IP1 Cellular Assay for EC50 Determination Against hMrgX1 by HTRF; format: cell-based; details: in presence of EC15 of BAM8-22; for EC50: HEK293 cells stably expressing hMrgX1, geometric mean (SEM, n), read-out: Relative EC50 (SEM, n)
# T1 construct: expressed in transfected cells
# Method: IP1 Cellular Assay for EC50 Determination Against hMrgX1 by HTRF
# Cell plating: HEK293 cells stably expressing the recombinant human MrgX1 receptor are expanded in culture flasks (Corning, T150), using growth media containing DMEM with glutamine (GIBCO™, Cat. #11960-044) supplemented with 10% heat-inactivated FBS (HyClone™, Cat. #CH30073), 1% penicillin/streptomycin (HyClone™, Cat. #SV30010; 10,000 U/mL penicillin; 10,000 μg/mL streptomycin in 0.85% NaCl), 20 mM HEPES (GIBCO™, Cat. #15530122) and 0.3 mg/mL G418 (GIBCO™, Cat. #11811031). When cell monolayers achieve a level of 80-90% confluence, monolayers are washed once with 10 mL of DPBS (HyClone™, Cat. #14190-144), dissociated using TrypLE™ Express enzyme cell dissociation media (GIBCO™, Cat. #12605-010), and diluted by addition of 10 mL DPBS. Dissociated cells are transferred to a sterile 50 mL conical tube, pelleted by centrifugation at 300×g to remove the growth and dissociation media, and diluted to 1M cells/mL into DMEM for plating.
# IP1 Potency and Efficacy Determination: Test compounds are dissolved in DMSO to a concentration of 10 mM and serially diluted in DMSO to obtain a 10-point concentration response stock dilution plate. Growth media is removed from the cell plate, and the stock 10-point dilution plate is diluted into media and stamped into the cell plate at a concentration 2× higher than the final test concentration of 30 μM maximum. The endogenous agonist […] (Tocris-BioScience® Cat. #1763) is diluted to the EC15, determined independently at a minimum of n=3, into the cell plate and incubated at room temperature for 120 min. Subsequently, half the volume each of anti-IP1 cryptate and d2-labeled IP1 in lysis buffer, supplied with the IP-One Gq Kit (CisBio Cat. #62IPAPEC) are added to the cell plate to initiate cell lysis, and incubated for 60 min at room temperature in the dark. At that point, fluorescence is determined at 620 and 665 nm (˜100 μs following laser excitation).
# Data Analysis: Fluorescent ratios are determined as the ratio of the fluorescence emission at […] and converted to IP1 concentration, using the IP1 standard curve generated in a separate plate, following the manufacturer's instructions. The IP1 concentration is then plotted as a function of compound concentration. Potentiator potency (EC50) is defined as the compound concentration, in the presence of the EC15 of the endogenous agonist […], resulting in 50% of the increase in IP1 concentration achieved by a saturating concentration of […], and is determined by using Genedata software (GeneData AG, Basel Switzerland) fitting the following equation to the 10-point CRC, where y is the IP1 concentration determined for a given compound concentration, [L] denotes the concentration of test compound and Max is the maximum increase achieved by a saturating concentration of […]: Y=Max*[L]/(EC50+[L]) EC50 values are reported as the geometric mean in nM (SEM, n).
# [1] = Plasma and brain homogenate protein binding by equilibrium dialysis; format: in vitro ADME, mouse
# Method: Determination of plasma and brain protein binding: Mouse plasma and brain homogenate protein binding is determined in vitro using equilibrium dialysis, as described elsewhere [Zamek-Gliszczynski et al., J Pharm Sci, 101:1932-1940, 2012]. The results are reported as fraction unbound in plasma (fu,plasma) and brain (fu,brain) which are then utilized to calculate Kp,uu,brain as described below. Mouse fu,plasma and fu,brain of Example 2 are determined to be 0.0421 and 0.0181, respectively.
# [2] = In Vivo Determination of Kp,uu,brain in Mice; design: species or system mouse; details: for Kp uu at 2 h / concentration at 2 h: male, mouse; for Kp uu at 2 h: C57Bl/6, brain/plasma; for concentration at 2 h: C57Bl/6, mouse, po
# Source text: In Vivo Determination of Kp,uu,brain in Mice
# Unbound brain-to-plasma partition coefficient (Kp,uu,brain) is one of the key pharmacokinetic parameter for evaluating a compound's ability to cross the blood-brain barrier (BBB). It is typically measured in pre-clinical species using the following methodology. Kp,uu,brain values indicate the fraction of free drug in plasma that partitions across the BBB.
# Subjects: The subjects for these studies are 12 male C57Bl/6 mice (Envigo, Indianapolis, IN, USA) between 8-10 weeks old at time of test. Mice are housed in groups of 4 in high density plastic home cages. Food and water is available ad libitum. The rooms are maintained at 73° F. with 30-70% relative humidity and kept on a light/dark cycle of 0600-1800 h. Agent: The compound of Example 2 is prepared at 0.3, 1, and 3 mg/ml in the 1% HEC, 0.25% TWEEN®80, 0.05% DOWSIL™ vehicle in water. Prepared compound is sonicated in water bath for 30 min until a suspension is formed. Mice are dosed at 10 ml/kg for a respective 3, 10 or 30 mg/kg dose. Dosing and Tissue Collection: For this experiment, four mice per dosing group receive oral dosing of either: 3, 10, or 30 mg/kg of the compound of Example 2. Mice are euthanized at 2 h post-dosing via CO2 asphyxiation, plasma samples are collected via cardia puncture, and mouse brains removed, weighed, and frozen on dry ice. Blood samples are stored in EDTA tubes on wet ice and centrifuged at 15 k rpm for 10 min. Plasma is collected, plated in a 96-well plate, and frozen at −80° C.
# Pharmacokinetic sampling: Plasma and brain samples obtained are analyzed for Example 2 using an LC-MS/MS method (Q2 Solutions, Indianapolis, IN, USA). Plasma samples are extracted using protein precipitation. The lower limit of quantification is 25 ng/mL, and the upper limit of quantification is 5000 ng/mL. Brain samples are homogenized, and the analyte is extracted using protein precipitation. The lower limit of quantification is 4 ng/g and the upper limit of quantification is 200000 ng/g.
# Analysis and Results: Kp,uu,brain is calculated for each time point from the expression below where individual components are derived from a combination of in vitro and in vivo measurements carried out as described above:
# [formula] where Ctotal,brain, Cu,brain, Ctotal,plasma, and Cu,plasma are total and unbound brain and plasma concentrations, and fu,brain and fu,plasma are fractions unbound in brain and plasma, respectively.
# T1 sequence (Q96LB2 whole entry): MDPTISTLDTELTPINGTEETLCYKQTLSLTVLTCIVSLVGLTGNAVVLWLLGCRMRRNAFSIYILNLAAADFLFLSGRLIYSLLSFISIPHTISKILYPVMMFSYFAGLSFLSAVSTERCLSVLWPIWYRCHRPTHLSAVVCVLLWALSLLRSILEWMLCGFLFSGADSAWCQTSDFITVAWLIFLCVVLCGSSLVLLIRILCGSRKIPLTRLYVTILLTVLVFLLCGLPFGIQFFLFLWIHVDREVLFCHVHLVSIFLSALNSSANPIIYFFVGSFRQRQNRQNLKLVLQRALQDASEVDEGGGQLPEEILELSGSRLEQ
smiles,measurement,setting,value
"Cc1c(Oc2c(F)cccc2F)nc(N)nc1C(F)(F)F [Example 6, 4-(2,6-difluorophenoxy)-5-methyl-6-(trifluoromethyl)pyrimidin-2-amine]",EC50,human MrgX1 receptor,38 nM
"Nc1nc(Oc2c(F)cccc2F)cc(C(F)(F)F)n1 [Example 1, 4-(2,6-Difluorophenoxy)-6-(trifluoromethyl)pyrimidin-2-amine]",EC50,human MrgX1 receptor,72 nM
"Cc1c(Oc2c(F)cc(C#N)cc2F)nc(N)nc1C(F)(F)F [Example 5, 4-[2-Amino-5-methyl-6-(trifluoromethyl)pyrimidin-4-yl]oxy-3,5-difluoro-benzonitrile]",EC50,human MrgX1 receptor,82 nM
same,Max (Mean ± SEM),human MrgX1 receptor; maximum stimulation achieved in the assay,120 nM
"Cc1c(Oc2c(F)cc(F)cc2F)nc(N)nc1C(F)(F)F [Example 4, 5-Methyl-4-(trifluoromethyl)-6-(2,4,6-trifluorophenoxy)pyrimidin-2-amine]",EC50,human MrgX1 receptor,40 nM
"N#Cc1cc(F)c(Oc2cc(C(F)(F)F)nc(N)n2)c(F)c1 [Example 3, 4-[2-Amino-6-(trifluoromethyl)pyrimidin-4-yl]oxy-3,5-difluoro-benzonitrile]",EC50,human MrgX1 receptor,104 nM
"Nc1nc(Oc2c(F)cc(F)cc2F)cc(C(F)(F)F)n1 [Example 2, 4-(2,4,6-Trifluorophenoxy)-6-(trifluoromethyl)pyrimidin-2-amine]",fraction unbound,"[1]; mouse brain homogenate, read-out: fraction unbound in brain (fu,brain)",0.0181
same,fraction unbound,"[1]; mouse plasma, read-out: fraction unbound in plasma (fu,plasma)",0.0421
same,blood brain barrier crossing / central penetrance,[2]; 2 h post-oral administration in mice,crosses the blood brain barrier and has central penetrance
same,Kp uu at 2 h,[2]; 3 mg/kg oral,0.506 ± 0.107
same,Kp uu at 2 h,[2]; 10 mg/kg oral,0.586 ± 0.116
same,Kp uu at 2 h,[2]; 30 mg/kg oral,0.601 ± 0.0553
same,concentration at 2 h,"[2]; brain, 3 mg/kg, 3 mg/kg oral, read-out: Total brain conc. (Ctotal,brain) ± SD",972 ± 353 nM
same,concentration at 2 h,"[2]; brain, 3 mg/kg, 3 mg/kg oral, using fu,brain 0.0181, read-out: Unbound brain conc. (Cu,brain) ± SD",17.6 ± 6.39 nM
same,concentration at 2 h,"[2]; brain, 10 mg/kg, 10 mg/kg oral, read-out: Total brain conc. (Ctotal,brain) ± SD",3900 ± 1800 nM
same,concentration at 2 h,"[2]; brain, 10 mg/kg, 10 mg/kg oral, using fu,brain 0.0181, read-out: Unbound brain conc. (Cu,brain) ± SD",55.4 ± 32.5 nM
same,concentration at 2 h,"[2]; brain, 30 mg/kg, 30 mg/kg oral, read-out: Total brain conc. (Ctotal,brain) ± SD",13700 ± 4200 nM
same,concentration at 2 h,"[2]; brain, 30 mg/kg, 30 mg/kg oral, using fu,brain 0.0181, read-out: Unbound brain conc. (Cu,brain) ± SD",248 ± 75.9 nM
same,concentration at 2 h,"[2]; plasma, 3 mg/kg, 3 mg/kg oral, read-out: Total plasma conc. (Ctotal,plasma) ± SD",809 ± 140 nM
same,concentration at 2 h,"[2]; plasma, 3 mg/kg, 3 mg/kg oral, using fu,plasma 0.0421, read-out: Unbound plasma conc. (Cu,plasma) ± SD",34.1 ± 5.94 nM
same,concentration at 2 h,"[2]; plasma, 10 mg/kg, 10 mg/kg oral, read-out: Total plasma conc. (Ctotal,plasma) ± SD",2770 ± 651 nM
same,concentration at 2 h,"[2]; plasma, 10 mg/kg, 10 mg/kg oral, using fu,plasma 0.0421, read-out: Unbound plasma conc. (Cu,plasma) ± SD",117 ± 27.4 nM
same,concentration at 2 h,"[2]; plasma, 30 mg/kg, 30 mg/kg oral, read-out: Total plasma conc. (Ctotal,plasma) ± SD",9700 ± 2410 nM
same,concentration at 2 h,"[2]; plasma, 30 mg/kg, 30 mg/kg oral, using fu,plasma 0.0421, read-out: Unbound plasma conc. (Cu,plasma) ± SD",409 ± 101 nM
same,EC50,human MrgX1 receptor,61 nM
